Laboratory results as given in PMC2359919, “Molecular targeting of retinoic acid metabolism in neuroblastoma: the role of the CYP26 inhibitor R116010 in vitro and in vivo” (British Journal of Cancer, 2007).
One block for each compound: values may come before it.

Legend:
[1] = Effect of R116010 on retinoid concentrations (plasma, liver, tumour) in an SH-SY5Y xenograft model, LC/MS; type: in vivo, CD-1 nude mice; settings: female, CD-1 nu/nu (athymic nude), mouse, tumour (SH-SY5Y xenograft), oral; 13cisRA 100 mg kg^−1 alone; SH-SY5Y tumour; 6 h; read-out: Tumour 13cisRA levels, control animals
Experimental: (§1) All in vivo experiments were approved by the relevant institutional animal welfare committees, and performed according to national law. Female athymic nude mice (CD-1 nu/nu, Charles River) used for antitumour studies were maintained and handled in isolators, under specific pathogen-free conditions, at 24°C with a 12 h light, 12 h dark cycle. Tumours were generated by implantation of SH-SY5Y cells subcutaneously (s.c.) into one flank of CD-1 nude mice (1 × 10^7 cells per animal).
(§2) Treatments began when the tumours were between 7 and 10 mm in length and breadth. Retinoids and R116010 were initially dissolved in DMSO before 10- or 20-fold dilutions in PBS, respectively. For pharmacokinetic studies, the animals were dosed with ATRA or 13cisRA (each 100 mg kg^−1) orally for 0.5, 2 and 6 h. For metabolism studies, animals were treated with R116010 orally at doses of 1.25 or 2.5 mg kg^−1 either immediately before the retinoid being studied, or up to three times (over 1–2 days) before dosing with the retinoid. At termination of experiments, animals were bled under terminal anaesthesia then killed by cervical dislocation. Plasma was immediately removed from the blood by centrifugation at 1000 g for 5 min and snap-frozen in liquid nitrogen in amber Eppendorfs. Tumour and liver samples were removed and snap-frozen, wrapped in foil, in liquid nitrogen.
(§3) Cell pellets obtained from retinoid incubations were re-suspended in 2 ml cell culture medium and disrupted by passing the samples several times through a syringe and hypodermic needle (25G × 1 inches, 0.5 mm × 25 mm; Terumo, Somerset, NJ, USA). Tumour and liver tissues were re-suspended in PBS and homogenised (T25 homogeniser, IKA Laboratories, Staufen, Germany). Retinoids were extracted as described previously ([Veal et al, 2002]; [Armstrong et al, 2005b]). Samples were reconstituted in 200 μl mobile phase A (n-hexane:dichloromethane:propan-2-ol, 400 : 1 : 0.27) and analysed by normal-phase HPLC as described previously ([Veal et al, 2002]). For LC/MS analysis, samples were reconstituted in 200 μl mobile phase A (50% acetonitrile, 50% (0.2%) acetic acid, v v^−1).
(§4) Resolution of retinoids was performed with a Luna C18(2) column (3 μm, 50 mm × 2 mm) using a Perkin Elmer LC (Beaconsfield, UK) system, consisting of a vacuum degasser, two series 200 pumps, a thermostatically controlled series 200 autosampler and a Waters 2487 UV absorbance detector. Retinoic isomers and metabolites were separated by gradient reversed-phase chromatography. An injection volume of 20 μl with a flow rate of 0.2 ml min^−1 was used with mobile phase A (50% acetonitrile, 50% (0.2%) acetic acid, v v^−1) and mobile phase B (acetonitrile, 0.1% acetic acid, v v^−1). Linear gradients were employed between the specified times as follows: 0, 100% A; 5 min, 100% A; 15 min, 100% B; 20 min, 100% B; 23 min, 100% A; 35 min, 100% A. An Applied Biosystems (Warrington, UK) API-2000 LC/MS/MS triple Q (quadrupole) mass spectrometer with electrospray ionisation source, controlled by Analyst software, was operated in single quadrupole negative mode for the detection of compounds.

CRABP II = CRABP II mRNA expression in SH-SY5Y cells, real-time PCR; type: cell-based, human; settings: ATRA 0.01 μM or 13cisRA 0.1 μM with R116010 1 μM vs retinoid alone, 24 h
Experimental: (§5) SH-SY5Y, SH-EP (N- and S-type cells respectively derived from the parental line SK-N-SH), LAN6, IMR-32, NGP and GIMEN neuroblastoma cell lines were cultured routinely in RPMI 1640 medium containing fetal calf serum (10%) and L-glutamine (2 mM). Cells were grown at 37°C in a humidified incubator containing 5% CO2.
(§6) 13-cis-Retinoic acid and ATRA were dissolved in DMSO and diluted in cell culture medium to obtain final concentrations of 0.1–10 μM. The final concentration of DMSO in all cases was <0.2%. All experiments were performed in dim light and tubes containing retinoids were wrapped in aluminium foil.
(§7) RNA was reverse-transcribed using Promega's Reverse Transcription System according to the manufacturer's instructions, using random hexamer primers. Real-time PCR was performed on 20 ng cDNA using TaqMan gene expression products for human CYP26A1, CYP26B1, CRABPII, RARβ and MYCN in combination with the TaqMan Universal PCR master mix (Applied Biosystems, Warrington, UK). […] As internal standard, β-actin was measured simultaneously using the endogenous control assay provided by Applied Biosystems. […] Standard curves were generated from serial dilutions of cDNA prepared from cells treated with ATRA (1 μM) and the data were analysed using the GeneAmp Sequence Detection System software. CYP26C1 expression was analysed as described previously ([Taimi et al, 2004]).

CYP26A1 = CYP26A1 expression in SH-SY5Y xenograft tumours; type: in vivo, CD-1 nude mice
Experimental: as §1
Treatments began when the tumours were between 7 and 10 mm in length and breadth. Retinoids and R116010 were initially dissolved in DMSO before 10- or 20-fold dilutions in PBS, respectively. For pharmacokinetic studies, the animals were dosed with ATRA or 13cisRA (each 100 mg kg^−1) orally for 0.5, 2 and 6 h. […]
as §7, with “primers.” for “primers. Real-time PCR was performed on 20 ng cDNA using TaqMan gene expression products for human CYP26A1, CYP26B1, CRABPII, RARβ and MYCN in combination with the TaqMan Universal PCR master mix (Applied Biosystems, Warrington, UK).”

RA metabolism = assay: Effect of R116010 on retinoid concentrations (plasma, liver, tumour) in an SH-SY5Y xenograft model, LC/MS; type: in vivo, CD-1 nude mice
Experimental: as §1, §2, §3, §4

[2] = test system: SH-SY5Y, NGP, SH-EP and GIMEN cells; assay: Intracellular ATRA and 13cisRA concentrations in neuroblastoma cells, normal-phase HPLC; type: cell-based, human
Experimental: as §5, §6, §3
Quantification of retinoid levels was carried out by HPLC analysis using a Waters 2690 Separations Module and 996 Photodiode array detector (Waters Ltd, Elstree, UK) and Waters Millennium software for data acquisition. Cell volumes were determined as described previously ([Veal et al, 2002]), and intracellular RA concentrations were expressed in micromolars.

[3] = 13cisRA 100 mg kg^−1 with increasing doses of R116010, 6 h
[4] = ATRA-treated mice (100 mg kg^−1) with R116010, 6 h

concentration at 6 h [1]: 220 ± 40 ng/g
SMILES: CC1=C(/C=C/C(C)=C/C=C/C(C)=C\C(=O)O)C(C)(C)CCC1 [13cisRA, 13-cis-retinoic acid]

SMILES: C[C@@H]([C@H](c1ccc(Nc2nc3ccccc3s2)cc1)n1ccnc1)N(C)C [R116010]
Effect on CRABP II expression, co-incubation with retinoid (CRABP II): significant increases
Increase in CYP26A1 expression in tumours (CYP26A1; 13cisRA with two doses of R116010 at 2.5 mg kg^−1 vs 13cisRA alone, individual animals, data not shown): 4- to 20 fold
Effect on CYP26A1 expression in tumours (CYP26A1; R116010 prior ATRA): not significantly different
Increase in 13cisRA plasma concentration (RA metabolism; 13cisRA 100 mg kg^−1 after four doses of R116010 at 2.5 mg kg^−1 vs 13cisRA alone, 6 h): ≤ 4.6 fold
Effect on 13cisRA plasma concentrations (RA metabolism; 13cisRA 100 mg kg^−1 with increasing doses of R116010 (1.25; 2.5 mg kg^−1 x1, x2, x4) vs retinoid alone, 6 h): significant increases
Effect on plasma 13cis-4-oxo-RA concentrations (RA metabolism; [3]): no significant dose-dependent effect
Effect on plasma AT-4-oxo-RA concentrations (RA metabolism; [3]): apparent linear increase
Effect on ATRA plasma concentrations (RA metabolism; 13cisRA 100 mg kg^−1 with increasing doses of R116010 vs retinoid alone, 6 h): significant increases
Effect on liver ATRA levels (RA metabolism; 13cisRA 100 mg kg^−1 with one and two doses of 2.5 mg kg^−1 R116010, 6 h): increased slightly
Tumour 13cisRA levels with R116010 (RA metabolism; 13cisRA 100 mg kg^−1 with single dose R116010 at 2.5 mg kg^−1, SH-SY5Y tumour, 6 h): 0.59 ± 0.07 µg/g
Effect on levels of the 4-oxo-RA metabolites in tumour (RA metabolism; 13cisRA or ATRA in combination with R116010 vs retinoid alone): no significant differences
Effect on levels of ATRA in tumour samples (RA metabolism; 13cisRA-treated mice with R116010): not significantly affected
Increase in plasma ATRA concentrations (RA metabolism; ATRA 100 mg kg^−1 after four doses of R116010 at 2.5 mg kg^−1 vs ATRA alone, 6 h): ≤ 2.3 fold
Effect on liver 13cisRA or ATRA levels (RA metabolism; ATRA 100 mg kg^−1 in combination with R116010, 6 h): No significant increases
Effect on liver 13cis-4-oxo-RA and AT-4-oxo-RA levels (RA metabolism; ATRA 100 mg kg^−1 in combination with R116010 or after R116010 pretreatment, 6 h): significant decreases
Effect on plasma 13cisRA concentrations (RA metabolism; [4]): marginal
Effect on plasma AT-4-oxo-RA levels (RA metabolism; [4]): no effect
Effect on liver 13cisRA levels (RA metabolism; R116010 before 13cisRA 100 mg kg^−1, 6 h): not associated with 13cisRA levels being different from control
Effect on liver 13cis-4-oxo-RA and AT-4-oxo-RA concentrations (RA metabolism; R116010 before 13cisRA 100 mg kg^−1, all conditions, 6 h): significantly lower levels
Effect on levels of retinoids in tumour tissue (RA metabolism; R116010 before ATRA): no significant differences
Effect on ATRA concentrations after incubation with 13cisRA ([2]; NGP cells, 10 μM 13cisRA with 1 or 10 μM R116010, 24 h): similar, although nonsignificant, trend
Effect on ATRA levels after incubation with 13cisRA ([2]; SH-EP or GIMEN cells, 10 μM 13cisRA with 1 or 10 μM R116010, 24 h): no observable effect
Effect on intracellular ATRA concentrations after ATRA treatment ([2]; SH-EP or GIMEN cells, 10 μM ATRA with 1 or 10 μM R116010, 24 h): no effect
Effect on intracellular ATRA concentrations after ATRA treatment ([2]; SH-SY5Y and NGP cells, 10 μM ATRA with 1 or 10 μM R116010, 24 h): significant increases
Effect on ATRA concentrations after incubation with 13cisRA ([2]; SH-SY5Y cells, 10 μM 13cisRA with 1 or 10 μM R116010, 24 h): significant increase
Effect on 13cisRA concentrations after incubation with 13cisRA ([2]; all four cell lines, 10 μM 13cisRA with 1 or 10 μM R116010, 24 h): no significant changes
Effect on 13cisRA levels after incubation with ATRA ([2]; any of the cell lines, 10 μM ATRA with 1 or 10 μM R116010, 24 h): no effect
